Reference: ChEMBL document CHEMBL3091333, “Design, synthesis and biological evaluation of novel 4-anilinoquinazolines with C-6 urea-linked side chains as inhibitors of the epidermal growth factor receptor” (Bioorg Med Chem, 2013)
pIC50: −log10 of the molar value. Active and inactive are the calls of the source. The rule behind the calls is not given here.

How the values were obtained:
NCI-H1975 = assay: Antiproliferative activity against human NCI-H1975 cells expressing EGFR T790M mutant after 72 hrs by SRB assay; assay type: functional, cell-based; conditions: NCI-H1975, 72 h
[1] = biological target: Epidermal growth factor receptor (Homo sapiens, UniProt P00533, L858M/T790M); assay: Inhibition of EGFR T790M/[…] double mutant (unknown origin) expressed in baculovirus expression system using poly (Glu, Tyr) 4:1 as substrate after 60 mins by ELISA
Epidermal growth factor receptor (Homo sapiens, UniProt P00533, L858M/T790M), sequence (P00533 25-1210 T790M/L858M limits assumed): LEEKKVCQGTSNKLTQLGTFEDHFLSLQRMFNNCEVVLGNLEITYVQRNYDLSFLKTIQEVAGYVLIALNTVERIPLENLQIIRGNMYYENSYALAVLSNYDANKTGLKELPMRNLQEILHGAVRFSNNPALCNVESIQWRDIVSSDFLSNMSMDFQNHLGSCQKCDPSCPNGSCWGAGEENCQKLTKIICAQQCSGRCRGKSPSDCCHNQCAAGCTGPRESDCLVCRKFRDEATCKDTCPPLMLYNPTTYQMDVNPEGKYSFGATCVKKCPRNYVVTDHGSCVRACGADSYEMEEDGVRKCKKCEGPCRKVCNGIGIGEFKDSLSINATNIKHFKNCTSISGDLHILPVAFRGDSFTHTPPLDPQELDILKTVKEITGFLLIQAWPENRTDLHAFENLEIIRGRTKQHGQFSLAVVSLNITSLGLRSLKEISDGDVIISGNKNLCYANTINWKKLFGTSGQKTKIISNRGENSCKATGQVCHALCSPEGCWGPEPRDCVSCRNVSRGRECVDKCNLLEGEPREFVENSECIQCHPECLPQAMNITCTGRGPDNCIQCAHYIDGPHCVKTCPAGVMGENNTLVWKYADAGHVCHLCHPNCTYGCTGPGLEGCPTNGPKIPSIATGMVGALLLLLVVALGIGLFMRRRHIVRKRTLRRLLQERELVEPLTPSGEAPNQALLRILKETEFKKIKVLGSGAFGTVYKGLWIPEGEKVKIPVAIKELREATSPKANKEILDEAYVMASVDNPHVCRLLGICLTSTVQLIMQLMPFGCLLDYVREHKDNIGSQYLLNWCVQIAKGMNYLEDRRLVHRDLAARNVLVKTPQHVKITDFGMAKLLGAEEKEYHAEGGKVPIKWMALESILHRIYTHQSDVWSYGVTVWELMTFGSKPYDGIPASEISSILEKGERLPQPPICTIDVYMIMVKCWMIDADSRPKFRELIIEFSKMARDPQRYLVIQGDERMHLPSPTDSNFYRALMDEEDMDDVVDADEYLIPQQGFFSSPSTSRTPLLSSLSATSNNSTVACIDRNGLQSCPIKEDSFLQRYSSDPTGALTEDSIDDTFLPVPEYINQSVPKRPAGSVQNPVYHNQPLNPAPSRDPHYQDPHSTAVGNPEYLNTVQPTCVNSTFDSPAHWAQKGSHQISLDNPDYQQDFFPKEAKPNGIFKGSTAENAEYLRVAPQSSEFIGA

[2] = biological target: T1, Epidermal growth factor receptor (Homo sapiens, UniProt P00533); assay: Inhibition of EGF-induced EGFR phosphorylation in human A431 cells assessed as decrease in ERK phosphorylation at 0.01 to 10 uM incubated for 1 hr prior to EGF induction measured after 10 mins by Western blotting analysis; assay type: cell-based; conditions: A-431
T1 sequence (P00533 whole entry): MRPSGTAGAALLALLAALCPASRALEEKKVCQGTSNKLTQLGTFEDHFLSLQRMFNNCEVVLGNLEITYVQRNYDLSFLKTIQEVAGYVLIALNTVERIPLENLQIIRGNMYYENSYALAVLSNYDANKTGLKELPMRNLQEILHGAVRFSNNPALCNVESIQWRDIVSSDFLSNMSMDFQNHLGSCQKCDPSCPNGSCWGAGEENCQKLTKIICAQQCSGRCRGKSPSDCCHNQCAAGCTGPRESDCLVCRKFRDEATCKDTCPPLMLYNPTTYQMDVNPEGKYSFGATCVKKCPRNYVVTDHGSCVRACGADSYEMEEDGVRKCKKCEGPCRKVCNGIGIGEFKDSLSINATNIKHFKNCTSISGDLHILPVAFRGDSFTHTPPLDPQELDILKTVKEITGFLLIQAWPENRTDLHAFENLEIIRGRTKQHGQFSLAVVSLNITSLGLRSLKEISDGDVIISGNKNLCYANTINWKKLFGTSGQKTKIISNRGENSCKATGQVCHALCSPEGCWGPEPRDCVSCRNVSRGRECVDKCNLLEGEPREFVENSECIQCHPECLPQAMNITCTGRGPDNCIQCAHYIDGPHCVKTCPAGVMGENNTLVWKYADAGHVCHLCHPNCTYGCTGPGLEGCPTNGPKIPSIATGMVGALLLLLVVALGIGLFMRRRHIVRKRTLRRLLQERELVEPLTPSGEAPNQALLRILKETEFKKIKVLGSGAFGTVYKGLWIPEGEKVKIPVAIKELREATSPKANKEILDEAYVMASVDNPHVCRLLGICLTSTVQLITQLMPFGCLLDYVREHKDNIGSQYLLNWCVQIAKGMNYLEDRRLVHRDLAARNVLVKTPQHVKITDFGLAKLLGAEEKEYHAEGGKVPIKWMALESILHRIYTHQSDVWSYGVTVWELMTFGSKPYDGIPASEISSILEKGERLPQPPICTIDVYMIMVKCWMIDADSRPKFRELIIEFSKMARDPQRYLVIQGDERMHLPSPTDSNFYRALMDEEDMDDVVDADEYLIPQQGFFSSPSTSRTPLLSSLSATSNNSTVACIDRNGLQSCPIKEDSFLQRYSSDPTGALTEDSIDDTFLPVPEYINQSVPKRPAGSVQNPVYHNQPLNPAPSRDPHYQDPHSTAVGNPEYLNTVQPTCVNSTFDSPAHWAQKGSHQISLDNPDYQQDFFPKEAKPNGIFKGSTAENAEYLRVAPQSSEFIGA

[3] = biological target: T1, Epidermal growth factor receptor; assay: Inhibition of EGF-induced EGFR phosphorylation in human A431 cells assessed as decrease in AKT phosphorylation at 0.01 to 10 uM incubated for 1 hr prior to EGF induction measured after 10 mins by Western blotting analysis; assay type: cell-based; conditions: A-431
[4] = biological target: T1, Epidermal growth factor receptor; assay: Inhibition of EGF-induced EGFR phosphorylation in human A431 cells at 0.01 uM incubated for 1 hr prior to EGF induction measured after 10 mins by Western blotting analysis; assay type: cell-based; conditions: A-431
[5] = biological target: T1, Epidermal growth factor receptor; assay: Inhibition of EGF-induced EGFR phosphorylation in human A431 cells incubated for 1 hr prior to EGF induction measured after 10 mins by Western blotting analysis; assay type: cell-based; conditions: A-431
[6] = biological target: T1, Epidermal growth factor receptor; assay: Inhibition of wild type EGFR (unknown origin) expressed in baculovirus expression system using poly (Glu, Tyr) 4:1 as substrate after 60 mins by ELISA
A-431 = assay: Antiproliferative activity against human A431 cells after 72 hrs by SRB assay; assay type: functional, cell-based; conditions: A-431, 72 h
[7] = tested on: Epidermal growth factor receptor (Homo sapiens), P00533 [T790M]; assay: Inhibition of EGF-induced EGFR T790M mutant autophosphorylation in human NCI-H1975 cells at 10 uM incubated for 1 hr prior to EGF induction measured after 10 mins by Western blotting analysis; assay type: cell-based
Epidermal growth factor receptor (Homo sapiens), P00533 [T790M], sequence (P00533 whole entry T790M): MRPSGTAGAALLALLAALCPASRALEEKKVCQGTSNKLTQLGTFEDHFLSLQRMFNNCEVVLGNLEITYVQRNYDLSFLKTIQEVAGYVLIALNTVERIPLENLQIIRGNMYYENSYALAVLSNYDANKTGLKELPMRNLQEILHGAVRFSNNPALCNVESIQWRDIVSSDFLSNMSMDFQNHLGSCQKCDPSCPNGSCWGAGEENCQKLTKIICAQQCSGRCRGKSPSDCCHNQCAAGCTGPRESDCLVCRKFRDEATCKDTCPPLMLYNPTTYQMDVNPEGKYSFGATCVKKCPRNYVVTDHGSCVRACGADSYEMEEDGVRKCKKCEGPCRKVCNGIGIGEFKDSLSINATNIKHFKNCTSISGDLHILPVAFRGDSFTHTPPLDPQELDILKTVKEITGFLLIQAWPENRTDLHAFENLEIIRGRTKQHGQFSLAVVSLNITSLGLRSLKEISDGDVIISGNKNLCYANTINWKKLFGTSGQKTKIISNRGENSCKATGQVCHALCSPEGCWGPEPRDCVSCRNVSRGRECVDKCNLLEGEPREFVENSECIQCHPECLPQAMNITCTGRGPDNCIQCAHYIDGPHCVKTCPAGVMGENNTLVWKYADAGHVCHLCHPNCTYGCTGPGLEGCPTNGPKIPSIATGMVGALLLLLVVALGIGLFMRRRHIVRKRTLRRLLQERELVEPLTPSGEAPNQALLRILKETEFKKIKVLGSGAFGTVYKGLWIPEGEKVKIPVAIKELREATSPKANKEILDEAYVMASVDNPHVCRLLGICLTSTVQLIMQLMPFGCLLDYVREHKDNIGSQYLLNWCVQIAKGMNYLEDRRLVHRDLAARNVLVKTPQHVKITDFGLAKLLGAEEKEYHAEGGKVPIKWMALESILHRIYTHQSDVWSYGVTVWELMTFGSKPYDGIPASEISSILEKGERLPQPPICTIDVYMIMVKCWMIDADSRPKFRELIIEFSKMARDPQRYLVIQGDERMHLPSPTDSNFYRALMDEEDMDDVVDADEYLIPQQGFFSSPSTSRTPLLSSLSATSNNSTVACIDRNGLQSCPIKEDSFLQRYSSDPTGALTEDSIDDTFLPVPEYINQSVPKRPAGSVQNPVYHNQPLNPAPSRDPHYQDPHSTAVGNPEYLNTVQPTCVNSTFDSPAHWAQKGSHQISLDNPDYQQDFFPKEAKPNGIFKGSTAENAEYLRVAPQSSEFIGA

[8] = tested on: Epidermal growth factor receptor (Homo sapiens), P00533 [T790M]; assay: Inhibition of EGF-induced EGFR T790M mutant phosphorylation in human NCI-H1975 cells assessed as AKT phosphorylation at < 10 uM incubated for 1 hr prior to EGF induction measured after 10 mins by Western blotting analysis; assay type: cell-based
[9] = tested on: Epidermal growth factor receptor (Homo sapiens), P00533 [T790M]; assay: Inhibition of EGF-induced EGFR T790M mutant phosphorylation in human NCI-H1975 cells assessed as ERK phosphorylation at < 10 uM incubated for 1 hr prior to EGF induction measured after 10 mins by Western blotting analysis; assay type: cell-based
[10] = biological target: Fibroblast growth factor receptor 1 (Homo sapiens, UniProt P11362); assay: Inhibition of FGFR1 (unknown origin) expressed in baculovirus expression system using poly (Glu, Tyr) 4:1 as substrate after 60 mins by ELISA
[11] = biological target: Insulin-like growth factor 1 receptor (Homo sapiens, UniProt P08069); assay: Inhibition of IGF1R (unknown origin) expressed in baculovirus expression system using poly (Glu, Tyr) 4:1 as substrate after 60 mins by ELISA
Ephrin type-A receptor 2 = Ephrin type-A receptor 2 (Homo sapiens, UniProt P29317); assay: Inhibition of recombinant EPHA2 (unknown origin) using poly (Glu, Tyr) 4:1 as substrate after 60 mins by ELISA
[12] = biological target: Platelet-derived growth factor receptor beta (Homo sapiens, UniProt P09619); assay: Inhibition of recombinant PDGFR-beta (unknown origin) using poly (Glu, Tyr) 4:1 as substrate after 60 mins by ELISA
[13] = biological target: Platelet-derived growth factor receptor alpha (Homo sapiens, UniProt P16234); assay: Inhibition of recombinant PDGFR-alpha (unknown origin) using poly (Glu, Tyr) 4:1 as substrate after 60 mins by ELISA
Platelet-derived growth factor receptor alpha, sequence (P16234 whole entry): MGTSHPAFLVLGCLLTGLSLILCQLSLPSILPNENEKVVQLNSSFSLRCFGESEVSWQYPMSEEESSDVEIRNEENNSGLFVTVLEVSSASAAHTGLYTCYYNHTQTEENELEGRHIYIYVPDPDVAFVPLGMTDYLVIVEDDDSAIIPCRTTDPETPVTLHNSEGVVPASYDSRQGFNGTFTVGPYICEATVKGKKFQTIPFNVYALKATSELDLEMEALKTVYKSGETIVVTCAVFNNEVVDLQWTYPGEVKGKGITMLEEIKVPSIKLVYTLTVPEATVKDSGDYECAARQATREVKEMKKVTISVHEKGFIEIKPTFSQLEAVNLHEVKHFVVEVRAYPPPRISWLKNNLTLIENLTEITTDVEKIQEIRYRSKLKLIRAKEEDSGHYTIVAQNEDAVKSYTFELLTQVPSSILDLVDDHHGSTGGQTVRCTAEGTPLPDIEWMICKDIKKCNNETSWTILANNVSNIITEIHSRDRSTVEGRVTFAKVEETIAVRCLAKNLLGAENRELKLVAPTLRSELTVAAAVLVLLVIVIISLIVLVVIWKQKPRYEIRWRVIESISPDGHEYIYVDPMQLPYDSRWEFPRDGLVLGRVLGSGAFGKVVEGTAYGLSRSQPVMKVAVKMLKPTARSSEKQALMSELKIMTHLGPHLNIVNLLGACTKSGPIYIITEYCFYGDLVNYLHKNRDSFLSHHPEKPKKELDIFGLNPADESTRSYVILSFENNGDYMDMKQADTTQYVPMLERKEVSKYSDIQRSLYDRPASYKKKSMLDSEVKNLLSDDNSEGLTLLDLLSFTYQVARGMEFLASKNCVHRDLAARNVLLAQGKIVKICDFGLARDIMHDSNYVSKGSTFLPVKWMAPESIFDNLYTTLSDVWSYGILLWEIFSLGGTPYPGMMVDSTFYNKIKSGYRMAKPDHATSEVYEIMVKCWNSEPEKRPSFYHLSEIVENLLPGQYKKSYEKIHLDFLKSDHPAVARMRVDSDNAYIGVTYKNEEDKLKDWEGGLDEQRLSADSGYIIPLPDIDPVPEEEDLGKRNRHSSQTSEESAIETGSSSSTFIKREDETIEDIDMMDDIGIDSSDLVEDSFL

[14] = biological target: Mast/stem cell growth factor receptor Kit (Homo sapiens, UniProt P10721); assay: Inhibition of recombinant c-Kit (unknown origin) using poly (Glu, Tyr) 4:1 as substrate after 60 mins by ELISA
[15] = biological target: Vascular endothelial growth factor receptor 1 (Homo sapiens, UniProt P17948); assay: Inhibition of recombinant FLT-1 (unknown origin) using poly (Glu, Tyr) 4:1 as substrate after 60 mins by ELISA
[16] = biological target: Tyrosine-protein kinase ABL1 (Homo sapiens, UniProt P00519); assay: Inhibition of recombinant ABL (unknown origin) using poly (Glu, Tyr) 4:1 as substrate after 60 mins by ELISA
[17] = biological target: Macrophage-stimulating protein receptor (Homo sapiens, UniProt Q04912); assay: Inhibition of recombinant RON (unknown origin) using poly (Glu, Tyr) 4:1 as substrate after 60 mins by ELISA
[18] = biological target: Proto-oncogene tyrosine-protein kinase receptor Ret (Homo sapiens, UniProt P07949); assay: Inhibition of recombinant RET (unknown origin) using poly (Glu, Tyr) 4:1 as substrate after 60 mins by ELISA
[19] = biological target: Receptor tyrosine-protein kinase erbB-4 (Homo sapiens, UniProt Q15303); assay: Inhibition of recombinant ErbB4 (unknown origin) using poly (Glu, Tyr) 4:1 as substrate after 60 mins by ELISA
[20] = biological target: Receptor tyrosine-protein kinase erbB-2 (Homo sapiens, UniProt P04626); assay: Inhibition of ErbB2 (unknown origin) expressed in baculovirus expression system using poly (Glu, Tyr) 4:1 as substrate after 60 mins by ELISA
[21] = biological target: T1, Epidermal growth factor receptor; assay: Irreversible inhibition of EGFR (unknown origin) using 5-FAM-EEPLYWSFPAKKK-CONH2 as substrate at 100 fold IC50 preincubated for 30 mins followed by 100 fold dilution measured for 2 hrs
[22] = biological target: Vascular endothelial growth factor receptor 2 (Homo sapiens, UniProt P35968); assay: Inhibition of KDR (unknown origin) expressed in baculovirus expression system using poly (Glu, Tyr) 4:1 as substrate after 60 mins by ELISA

SMILES	pIC50 (NCI-H1975)	pIC50 [1]	pIC50 [6]	pIC50 (A-431)	further results
CN(C)CCCNC(=O)Nc1cc2c(Nc3ccc(F)c(Cl)c3)ncnc2cc1O[C@H]1CCOC1	5.20	6.56	7.62	6.65	inhibition [2]: Active; inhibition [3]: Active; inhibition [4]: Active; inhibition [5]: Dose-dependent effect
O=C(NCCN1CCOCC1)Nc1cc2c(Nc3ccc(F)c(Cl)c3)ncnc2cc1O[C@H]1CCOC1	5.28	7.31	7.09	6.51	inhibition [7]: Active; inhibition [8]: inactive; inhibition [9]: inactive
COC(CCNC(=O)Nc1cc2c(Nc3ccc(F)c(Cl)c3)ncnc2cc1O[C@H]1CCOC1)OC	< 4.00	6.40	6.26	4.66	–
CN(C)CCNC(=O)Nc1cc2c(Nc3ccc(F)c(Cl)c3)ncnc2cc1O[C@H]1CCOC1	5.33	5.68	6.20	6.09	–
CCN(CC)CCN(C)C(=O)Nc1cc2c(Nc3ccc(F)c(Cl)c3)ncnc2cc1O[C@H]1CCOC1	5.08	6.41	6.30	6.32	–
O=C(NCCN1CCCC1)Nc1cc2c(Nc3ccc(F)c(Cl)c3)ncnc2cc1O[C@H]1CCOC1	5.28	7.21	7.17	6.61	inhibition [7]: Active; pIC50 [10]: < 5.00; pIC50 [11]: < 5.00; pIC50 (Ephrin type-A receptor 2): < 5.00; pIC50 [12]: < 5.00; pIC50 [13]: < 5.00; pIC50 [14]: < 5.00; pIC50 [15]: < 5.00; pIC50 [16]: < 5.00; pIC50 [17]: 5.21; pIC50 [18]: 6.65; pIC50 [19]: 7.92; pIC50 [20]: 6.95; inhibition [21]: Active; inhibition [8]: inactive; inhibition [9]: inactive; pIC50 [22]: < 5.00
CN(C)CCCN(C)C(=O)Nc1cc2c(Nc3ccc(F)c(Cl)c3)ncnc2cc1O[C@H]1CCOC1	5.48	5.28	6.33	6.70	–
CN(C)CCN(C)C(=O)Nc1cc2c(Nc3ccc(F)c(Cl)c3)ncnc2cc1O[C@H]1CCOC1	5.09	6.17	6.55	6.35	–
COC(=O)/C=C/CNC(=O)Nc1cc2c(Nc3ccc(F)c(Cl)c3)ncnc2cc1O[C@H]1CCOC1	5.02	6.58	6.39	5.85	–
CS(=O)(=O)CCNC(=O)Nc1cc2c(Nc3ccc(F)c(Cl)c3)ncnc2cc1O[C@H]1CCOC1	4.45	6.17	7.39	5.80	–
O=C(Nc1cc2c(Nc3ccc(F)c(Cl)c3)ncnc2cc1O[C@H]1CCOC1)N1CCC(F)CC1	4.48	5.74	6.16	5.52	–
O=C(Nc1cc2c(Nc3ccc(F)c(Cl)c3)ncnc2cc1O[C@H]1CCOC1)N1CC(O)C1	4.49	5.85	6.27	5.71	–
O=C(NCCO)Nc1cc2c(Nc3ccc(F)c(Cl)c3)ncnc2cc1O[C@H]1CCOC1	4.75	–	–	6.22	–
O=C(Nc1cc2c(Nc3ccc(F)c(Cl)c3)ncnc2cc1O[C@H]1CCOC1)N1CCC(CCO)CC1	4.60	5.53	6.52	6.12	–
